# Measured values as given in patent US8207203B2, “Pyridylisoxazole derivatives” (Aska Pharmaceutical Co., Ltd., priority 2006, dated 2012).
# How the values were obtained:
# [1] = Measurement of the compounds' metabolic rate (human liver S9, LC/MS/MS); type: in vitro ADME; details: human liver S9 0.5 mg protein/mL, compound 1 μmol/L, NADPH generating system, pH7.4, 37° C.
# Procedure: (2) Measurement of the Compounds' Metabolic Rate:
# Each test compound was added to potassium phosphate buffer (50 mmol/L, pH7.4) containing NADPH generating system (comprising 3.3 mmol/L MgCl2, 3.3 mmol/L glucose 6-phosphate, 1.3 mmol/L β-NADP^+ and 0.4 unit/mL glucose 6-phosphate dehydrogenase) (in which occasion the final concentration was rendered 1 μmol/L) and incubated at 37° C. for 2 minutes. After the incubation, a suspension of human liver S9 (the supernatant fraction obtained by centrifuging comminuted human liver cell fluid at 9000×g) in potassium phosphate buffer was added to the system, to the final concentration of 0.5 mg protein/mL. This reaction mixture was incubated at 37° C. for 5 minutes, and to which 4 volume times the reaction mixture of acetonitrile was added, mixed, cooled with ice and centrifuged (2000×g, 10 minutes). A part of the supernatant was taken and analyzed by LC/MS/MS, to determine the remaining rate of unchanged substance in the reaction solution. The results are shown in the following Table A, concurrently with the measured results of TNF-α production-inhibiting action in (1) above.
# [2] = tested on: TNF-α production; experiment: Measurement of TNF-α production-inhibiting action (LPS-stimulated THP-1 cells, ELISA); type: cell-based; details: Homo sapiens; test substance 100 nM; THP-1 cells with LPS, 2 hours' culture; TNF-α in supernatant by ELISA; read-out: TNF-α generation-inhibiting action (inhibition: rate: %, 100 nM)
# Procedure: (1) Measurement of TNF-α Production-Inhibiting Action
# THP-1, human-derived culture cells (purchased from Dainippon Pharmaceutical Co.), was suspended (1×10^5 cells/mL) in RPMI 1640 medium (10% fetal bovine serum, containing 100 units/mL of penicillin). The THP-1 cell suspension 1.6 mL was inoculated in a 24-well culture plate, to which further a solution of test substance as dissolved in RPMI 1640 medium to make the final concentration of the test substance 100 nM and 0.2 mL of LPS (E. coli 055: B5-derived, dissolved in RPMI 1640 medium, Difco) of 10 μg/mL in concentration were added, followed by 2 hours' culture under the conditions of 37° C. and 5% CO2. The supernatant which was obtained upon centrifuge (500×g, 5 minutes) was measured with ELISA (Amersham Biosciences, TNF-α Human, ELISA Biotrak System) to quantize TNF-α. The TNF-α production inhibition rate (%) at 100 nM of each test substance was calculated according to the following formula, […]
percent of unchanged compound remaining after 5 min [1] [%],Structure (SMILES),inhibition at 0.1 µM [2] [%]
58.0,"Cc1cc(-c2noc(NC(=O)Cc3ccccc3)c2-c2ccncc2)ccc1F [Example 123, 3-(4-Fluoro-3-methylphenyl)-5-(phenylacetylamino)-4-(4-pyridyl)-isoxazole]",78.1
59.7,"Cc1cc(-c2noc(NC(=O)Cc3ccccc3Cl)c2-c2ccncc2)ccc1F [Example 124, 5-[(2-Chlorophenyl)acetylamino]-3-(4-fluoro-3-methylphenyl)-4-(4-pyridyl)isoxazole]",85.2
20.1,"Cc1cc(-c2noc(NC(=O)CCc3ccccc3)c2-c2ccncc2)ccc1F [Example 125, 3-(4-Fluoro-3-methylphenyl)-5-(3-phenylpropionylamino)-4-(4-pyridyl)isoxazole]",66

# Continued, compound first:
Structure (SMILES),percent of unchanged compound remaining after 5 min [1] [%],inhibition at 0.1 µM [2] [%]
"Cc1cccc(-c2noc(NC(=O)CCc3ccccc3)c2-c2ccncc2)c1 [Example 103, 3-(3-Methylphenyl)-5-(3-phenylpropionylamino)-4-(4-pyridyl)-isoxazole]",17.6,65.5
"Cc1cccc(-c2noc(NC(=O)CCc3ccccc3C)c2-c2ccncc2)c1 [Example 106, 3-(3-Methylphenyl)-5-[(2-methylphenyl)propionylamino]-4-(4-pyridyl)isoxazole]",23.3,52.9
"Cc1ccc(F)c(-c2noc(NC(=O)CCc3cccc(Cl)c3)c2-c2ccncc2)c1 [Example 117, 5-[(3-Chlorophenyl)propionylamino]-3-(2-fluoro-5-methylphenyl)-4-(4-pyridyl)isoxazole]",50.5,58.1
